Assay results as given in US20070025920A1, “Stable Pharmaceutical Solution Formulations for Pressurized Metered Dose Inhalers” (priority 2004, published 2007).
Where two headings read alike, the source gives them in different places.

Tests used:
[1] = Stability study of 1 μg/63 μl formulations with 0.1M hydrochloric acid, upright cans at 40° C. and 75% relative humidity; assay type: physicochemical; details: 15 w/w ethanol, HFA 134a, three months
Experimental: Two aluminum canisters having the internal surface coated with Teflon and fitted with commercial valves having a 63 μl metering chamber were filled with the following formulations shown in Table 3. A stability study was carried out by storing the formulations in upright cans at 40° C. and 75% relative humidity.

[2] = Stability study of the 1 μg/63 μl formulation with 15.2 M phosphoric acid, upright and inverted cans at 40° C. and 75% relative humidity; assay type: physicochemical; details: 15% w/w ethanol, HFA 134a, 15.2 M phosphoric acid 0.001 to 0.0027% w/w, six months
Experimental: The formulation of Table 4 (120 actuations/canister, overage of 30 actuations) was filled in aluminum canisters having the internal surface coated with Teflon and fitted with commercial valves having a 63 μl metering chamber. A stability study was carried out by storing the formulation in upright and inverted cans at 40° C. and 75% relative humidity.

[3] = Stability of the TA 2005 + budesonide HFA 134a composition with phosphoric acid, 40° C. and 75% relative humidity; assay type: physicochemical; details: TA 2005 1 μg + budesonide 200 μg/actuation, phosphoric acid 85% 0.0032 or 0.0064% w/w, 0.15% w/w water, three months
Experimental: Two compositions were tested containing TA 2005 and budesonide as active ingredients and two different concentrations of phosphoric acid.
Volume of the valve: 63 μl; strength: TA 2005 1 μg+budesonide 200 μg/actuation; no. of actuations: 120 (34 overfilling doses).
The two active ingredients in the compositions were stable after three months storage at 40° C. and 75% relative humidity, giving residual percent amounts of at least 95% TA 2005 and about 100% of Budesonide.

[4] = 3.5 μg/50 μl, cited from earlier work
[5] = 4 μg per actuation, HCl-stabilised HFA 134a/ethanol solution; stored upright at 5° C.; after nine months; mean of 2 cans; cited from earlier work

## COc1ccc(C[C@@H](C)NC[C@H](O)c2ccc(O)c3[nH]c(=O)ccc23)cc1.Cl [TA 2005, 8-hydroxy-5-[(1R)-1-hydroxy-2-[[(1R)-2-(4-methoxyphenyl)-1-methylethyl]amino]ethyl]-2(1H)-quinolinone hydrochloride]
[1]; hydrochloric acid 0.1M 0.018 w/w
  percent amount of TA 2005: 73%
[1]; hydrochloric acid 0.1M 0.027 w/w
  percent amount of TA 2005: 77%
[2]
  residual percent amount of TA 2005: up to 98%
[3]
  residual percent amount: at least 95%
[4]; HFA 134a, 12% w/w ethanol, 1.0% w/w isopropyl myristate, 1.0 μl 0.08M HCl per can (apparent pH about 4.8), Initial
  TA 2005 content, per cent nominal drug concentration: 100.0 per cent
[4]; HFA 134a, 12% w/w ethanol, 1.0% w/w isopropyl myristate, 1.4 μl 0.08M HCl per can (apparent pH about 3.2), Initial
  TA 2005 content, per cent nominal drug concentration: 100.0 per cent
[4]; 1.0 μl 0.08M HCl per can, 50° C., 22 days upright
  TA 2005 content, per cent nominal drug concentration: 98.3 per cent
[4]; 1.0 μl 0.08M HCl per can, 50° C., 83 days upright
  TA 2005 content, per cent nominal drug concentration: 99.4 per cent
[4]; 1.4 μl 0.08M HCl per can, 50° C., 22 days upright
  TA 2005 content, per cent nominal drug concentration: 98.2 per cent
[4]; 1.4 μl 0.08M HCl per can, 50° C., 83 days upright
  TA 2005 content, per cent nominal drug concentration: 98.8 per cent
[5]
  TA 2005 assay: higher than 95%
